Experimental data: patent US20240025906A1 (NEURON23, INC., priority 2022, published 2024)
Where two headings read alike, the source gives them in different places.

Legend:
[1] = tested on: JAK1/TYK2 pSTAT5 (Tyr694/699) in THP-1 cell line; test: IFNa-stimulated JAK1/TYK2 pSTAT5 (Tyr694/699) inhibition cellular assay, AlphaLISA; assay type: cell-based; settings: Homo sapiens, THP-1 cells, AlphaLISA (Assay B)
Outline: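 An eight-point 6-fold titration of compound (0.04–10000 nM final) is given to THP-1 cells for 1 h before 30 min of IFNa exposure. Phospho-STAT5 is read by AlphaLISA at 615 nm. IC50 values are derived by logistic regression with bottom set to 0 and Hill slope set to −1.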

[2] = target: T1, TYK2 JH2 (Homo sapiens, UniProt P29597); test: TYK2 JH2 binding assay (KINOMEscan KdELECT competitive binding); settings: TYK2 JH2 domain
T1 construct: purchased DiscoverX (KINOMEscan KdELECT service); host or cells: E. coli BL21-derived (T7 phage display) or HEK-293
T1 sequence (P29597 589-875 limits assumed): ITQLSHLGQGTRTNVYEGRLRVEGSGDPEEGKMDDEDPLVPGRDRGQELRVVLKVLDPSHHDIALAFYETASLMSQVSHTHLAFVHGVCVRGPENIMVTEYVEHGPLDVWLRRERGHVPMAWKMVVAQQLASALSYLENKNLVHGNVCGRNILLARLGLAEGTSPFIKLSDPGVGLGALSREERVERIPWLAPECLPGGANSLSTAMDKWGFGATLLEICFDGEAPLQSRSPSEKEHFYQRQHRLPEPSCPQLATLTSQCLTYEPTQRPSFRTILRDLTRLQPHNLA
Outline: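 Test compounds were titrated in 11 three-fold steps against JH2 fragment captured on ligand-loaded magnetic beads, with 1 h incubation at room temperature and DMSO at 0.9%. Eluted kinase was quantified by qPCR, and Kd was fitted from the dose series.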

[3] = IFNa-stimulated pSTAT5 (Tyr694/699), read-out: Cellular_THP1_IFNa-pSTATS_TYK2
[4] = KINOMEscan KdELECT (Assay A), read-out: Biochemical TYK2_DiscoverX_JH2_BND_Kd
[5] = IFNa-stimulated, read-out: Cellular_THP1_IFNa-pSTATS_TYK2
[6] = DiscoverX KINOMEscan KdELECT (Assay A), read-out: Biochemical TYK2_DiscoverX_JH2_BND_Kd
[7] = IFNa-stimulated, read-out: Cellular THP1_IFNa-pSTATS_IC50
[8] = KINOMEscan KdELECT (Assay A), read-out: Biochemical TYK2_JH2_Kd

Row | Kd [2, 4] [µM] | IC50 [1, 5] [µM] | Kd [2, 6] [µM] | SMILES | also measured
1 | ≤ 0.1 |  |  | CNc1ncc(-c2nc3ccc(N4CCO[C@H](C(C)(C)OC)C4)cn3n2)c2cc(NC(=O)C3CC3)ncc12 [Example 1033] | IC50 [1, 3]: ≤ 0.5 µM
2 | ≤ 0.1 |  |  | CNc1ncc(-c2nc3ccc(N4CCO[C@@H]([C@H](C)O)C4)cn3n2)c2cc(NC(=O)C3CC3)ncc12 (single isomer, unassigned) [Example 1044] | IC50 [1, 3]: ≤ 0.5 µM
3 |  | ≤ 0.5 | ≤ 0.1 | CNc1ncc(-c2nc3cccc(Cl)c3o2)c2cc(NC(=O)C3CC3)ncc12 [Example 211, N-(5-(7-chlorobenzo[d]oxazol-2-yl)-8-(methylamino)-2,7-naphthyridin-3-yl)cyclopropanecarboxamide] | 
4 |  | ≤ 0.5 | ≤ 0.1 | CNc1ncc(-c2nc3cc(N4CCO[C@@H](C)C4)ccc3o2)c2cc(NC(=O)[C@@H]3C[C@@H]3CF)ncc12 (racemic) [Example 410, 2-(fluoromethyl)-N-(8-(methylamino)-5-(5-((S)-2-methylmorpholino)benzo[d]oxazol-2-yl)-2,7-naphthyridin-3-yl)cyclopropane-1-carboxamide] | 
5 |  | ≤ 0.5 | ≤ 0.1 | [2H]C([2H])([2H])Nc1ncc(-c2nc3cc(OC)ccc3o2)c2cc(NC(=O)[C@H]3C[C@H]3C)ncc12 (racemic) [Example 436, N-(5-(5-methoxybenzo[d]oxazol-2-yl)-8-((methyl-d3)amino)-2,7-naphthyridin-3-yl)-2-methylcyclopropane-1-carboxamide] | 
6 |  |  |  | CNc1ncc(-c2ncccc2OC)c2cc(NC(=O)C3CC3)ncc12 [Example 5, N-(5-(3-methoxypyridin-2-yl)-8-(methylamino)-2,7-naphthyridin-3-yl)cyclopropanecarboxamide] | IC50 [1, 7]: > 0.5 µM; Kd [2, 8]: 0.1 to 1 µM
7 |  | ≤ 0.5 | ≤ 0.1 | CNc1ncc(-c2nc3ccc(N4C[C@@H](C)O[C@@H](C)C4)cn3n2)c2cc(NC(=O)[C@H]3C[C@H]3C)ncc12 [Example 555, (1S,2R)-N-(5-(6-((2R,6S)-2,6-dimethylmorpholino)-[1,2,4]triazolo[1,5-a]pyridin-2-yl)-8-(methylamino)-2,7-naphthyridin-3-yl)-2-methylcyclopropane-1-carboxamide] | 
8 |  | ≤ 0.5 | ≤ 0.1 | CNc1ncc(-c2nc3cc(N4CCO[C@@H](C)C4)ccc3o2)c2cc(Nc3ccn(C)n3)ncc12 [Example 417, (S)—N^1-methyl-N^6-(1-methyl-1H-pyrazol-3-yl)-4-(5-(2-methylmorpholino)benzo[d]oxazol-2-yl)-2,7-naphthyridine-1,6-diamine] | 
9 |  | ≤ 0.5 | ≤ 0.1 | [2H]C([2H])([2H])Nc1ncc(-c2nc3ccccc3o2)c2cc(NC(=O)C([2H])([2H])[2H])ncc12 [Example 432, N-(5-(benzo[d]oxazol-2-yl)-8-((methyl-d3)amino)-2,7-naphthyridin-3-yl)acetamide-2,2,2-d3] | 
10 | ≤ 0.1 | ≤ 0.5 |  | CNc1ncc(C#Cc2ccc(OC)nc2)c2cc(NC(=O)C3CC3)ncc12 [Example 631, N-(5-((6-methoxypyridin-3-yl)ethynyl)-8-(methylamino)-2,7-naphthyridin-3-yl)cyclopropanecarboxamide] | 
11 |  | ≤ 0.5 | ≤ 0.1 | CNc1ncc(-c2nc3ccc(N4CC(O)C4)cn3n2)c2cc(NC(=O)C3CC3)ncc12 [Example 475, N-(5-(6-(3-hydroxyazetidin-1-yl)-[1,2,4]triazolo[1,5-a]pyridin-2-yl)-8-(methylamino)-2,7-naphthyridin-3-yl)cyclopropanecarboxamide] | 
12 |  |  |  | CNc1ncc(-c2nccs2)c2cc(NC(=O)C3CC3)ncc12 [Example 63, N-(8-(methylamino)-5-(thiazol-2-yl)-2,7-naphthyridin-3-yl)cyclopropanecarboxamide] | IC50 [1, 7]: > 0.5 µM; Kd [2, 8]: ≤ 0.1 µM
13 | ≤ 0.1 |  |  | CNc1ncc(-c2nc3ccc(N4CCO[C@@H]([C@@H](C)O)C4)cn3n2)c2cc(NC(=O)C3CC3)ncc12 (single isomer, unassigned) [Example 1046] | IC50 [1, 3]: ≤ 0.5 µM
14 | ≤ 0.1 | ≤ 0.5 |  | CNc1ncc(C#Cc2cc(F)c(OC)cn2)c2cc(NC(=O)C3CC3)ncc12 [Example 718, N-(5-((4-fluoro-5-methoxypyridin-2-yl)ethynyl)-8-(methylamino)-2,7-naphthyridin-3-yl)cyclopropanecarboxamide] | 
15 | ≤ 0.1 |  |  | CNc1ncc(-c2nc3ccc(-c4ccn(C)n4)cn3n2)c2cc(NC(=O)C3CC3)ncc12 [Example 1042] | IC50 [1, 3]: ≤ 0.5 µM
16 | ≤ 0.1 | ≤ 0.5 |  | CNc1ncc(C#Cc2ccc(OC(F)(F)F)cn2)c2cc(NC(=O)C3CC3)ncc12 [Example 644, N-(8-(methylamino)-5-((5-(trifluoromethoxy)pyridin-2-yl)ethynyl)-2,7-naphthyridin-3-yl)cyclopropanecarboxamide] | 
17 | ≤ 0.1 | ≤ 0.5 |  | CNc1ncc(C#Cc2ccncc2F)c2cc(NC(=O)C3CC3)ncc12 [Example 991, N-[5-[2-(3-fluoro-4-pyridyl)ethynyl]-8-(methylamino)-2,7-naphthyridin-3-yl]cyclopropanecarboxamide] | 
18 |  |  |  | CNc1ncc(-c2ncc(C)s2)c2cc(NC(=O)C3CC3)ncc12 [Example 66, N-(8-(methylamino)-5-(5-methylthiazol-2-yl)-2,7-naphthyridin-3-yl)cyclopropanecarboxamide] | IC50 [1, 7]: > 0.5 µM; Kd [2, 8]: ≤ 0.1 µM
19 |  | ≤ 0.5 | ≤ 0.1 | CNc1ncc(-c2nc3cc(O[C@@H](C)COC)ccc3o2)c2cc(NC(=O)C3CC3)ncc12 [Example 350, (S)—N-(5-(5-((1-methoxypropan-2-yl)oxy)benzo[d]oxazol-2-yl)-8-(methylamino)-2,7-naphthyridin-3-yl)cyclopropanecarboxamide] | 
20 |  | ≤ 0.5 | ≤ 0.1 | CNc1ncc(-c2nc3cc(N4CCC4)ccc3o2)c2cc(NC(=O)C3CC3)ncc12 [Example 277, N-(5-(5-(azetidin-1-yl)benzo[d]oxazol-2-yl)-8-(methylamino)-2,7-naphthyridin-3-yl)cyclopropanecarboxamide] | 
21 | ≤ 0.1 | > 0.5 |  | CNc1ncc(C2=CCc3ccccc3O2)c2cc(NC(=O)C3CC3)ncc12 [Example 849, N-(5-(4H-chromen-2-yl)-8-(methylamino)-2,7-naphthyridin-3-yl)cyclopropanecarboxamide] | 
22 |  | ≤ 0.5 | ≤ 0.1 | C=C1COCCN(c2ccc3oc(-c4cnc(NC)c5cnc(NC(=O)C6CC6)cc45)nc3c2)C1 [Example 334, N-(8-(methylamino)-5-(5-(6-methylene-1,4-oxazepan-4-yl)benzo[d]oxazol-2-yl)-2,7-naphthyridin-3-yl)cyclopropanecarboxamide] | 
23 |  | ≤ 0.5 | ≤ 0.1 | CNc1ncc(-c2nc3cc(N4CCC4COC)ccc3o2)c2cc(NC(=O)C3CC3)ncc12 (stereo not drawn) [Example 278, N-(5-(5-(2-(methoxymethyl)azetidin-1-yl)benzo[d]oxazol-2-y1)-8-(methylamino)-2,7-naphthyridin-3-yl)cyclopropanecarboxamide] | 
24 | ≤ 0.1 | ≤ 0.5 |  | CNc1ncc(-c2nc3cc(N4CCO[C@H](C(F)(F)F)C4)ccc3o2)c2cc(NC(=O)C3CC3)ncc12 (single isomer, unassigned) [Example 923] | 
25 | ≤ 0.1 | ≤ 0.5 |  | CCc1nc(C)c(C#Cc2cnc(NC)c3cnc(NC(=O)C4CC4)cc23)s1 [Example 961, N-(5-((2-ethyl-4-methylthiazol-5-yl)ethynyl)-8-(methylamino)-2,7-naphthyridin-3-yl)cyclopropanecarboxamide] | 
26 | ≤ 0.1 | ≤ 0.5 |  | CNc1ncc(-c2nn3ccnc3s2)c2cc(NC(=O)C3CC3)ncc12 [Example 872, N-(5-(imidazo[2,1-b][1,3,4]thiadiazol-2-yl)-8-(methylamino)-2,7-naphthyridin-3-yl)cyclopropanecarboxamide] | 
27 | ≤ 0.1 |  |  | CNc1ncc(-c2cn3ccc(OC)cc3n2)c2cc(NC(=O)C3CC3)ncc12 [Example 1025] | IC50 [1, 3]: > 0.5 µM
28 | ≤ 0.1 | ≤ 0.5 |  | CNc1ncc(C#Cc2ccc3nc(COC)sc3c2)c2cc(NC(=O)C3CC3)ncc12 [Example 725, N-(5-((2-(methoxymethyl)benzo[d]thiazol-6-yl)ethynyl)-8-(methylamino)-2,7-naphthyridin-3-yl)cyclopropanecarboxamide] | 
29 | ≤ 0.1 | > 0.5 |  | CNc1ncc(C2=CCC(c3nc[nH]n3)C2)c2cc(NC(=O)C3CC3)ncc12 (stereo not drawn) [Example 833, N-(5-(4-(1H-1,2,4-triazol-3-yl)cyclopent-1-en-1-yl)-8-(methylamino)-2,7-naphthyridin-3-yl)cyclopropanecarboxamide] | 

Row | SMILES | Kd [2, 4] [µM] | IC50 [1, 5] [µM] | Kd [2, 6] [µM] | also measured
30 | CNc1ncc(-c2nc3cc(N4C5CCC4COC5)ccc3o2)c2cc(NC(=O)C3CC3)ncc12 [Example 311, N-(5-(5-(3-oxa-8-azabicyclo[3.2.1]octan-8-yl)benzo[d]oxazol-2-y1)-8-(methylamino)-2,7-naphthyridin-3-yl)cyclopropanecarboxamide] |  | ≤ 0.5 | ≤ 0.1 | 
